One data set concerns caspase-3. Description: Caspase-3 activation assay. The conditions noted are these: for Caspase-3 Conc: A-549; for Caspase-3 Fold Change: A-549, vs control untreated cells.
Another data set deals with caspase-8. In words: Caspase-8 activation assay. Format: cell-based, human. The following applies: for Caspase-8 Fold Change: vs control cells.
A short description of data set [1]: Cell viability assay (MTT) on normal cell line. Format: cell-based, human. The following applies: human, MCF-10A mammary gland epithelial cells, four days. The method, then:
A cell viability test was performed using MCF-10A (human mammary gland epithelial) cell line to investigate the effect of 4a–e and 7a–e on normal cell lines. In this investigation, a concentration of 50 µM of the studied compound is employed for four days, after which cell viability is assessed.
4.2. Biological evaluation
4.2.1. Cytotoxic activity using MTT Assay and evaluation of IC50
MTT assay was carried out to study the effect of compounds on mammary epithelial cells (MCF-10A). The medium in which cells were propagated contained Dulbecco's modified Eagle's medium (DMEM)/ Ham's F-12 medium (1:1) supplemented with epidermal growth factor (20 ng/mL), hydrocortisone (500 ng/mL), insulin (10 μg/mL), 2 mM glutamine and 10% foetal calf serum. After every 2-3 days, the cells were passaged using trypsin ethylenediamine tetra acetic acid (EDTA). The cells were seeded at a density of 10^4 cells mL-1 in flat-bottomed culture plates containing 96 wells each. After 24 h, medium was removed from the plates and the compounds in (in 0.1% DMSO) were added (in 200 μL medium to yield a final concentration of 0.1% v/v) to the wells of plates. A single compound was designated with four wells followed by incubation of plates for 96h at 37°C. After incubation, medium was removed completely from the plates followed by addition of MTT (0.4 mg/mL in medium) to each well and subsequent incubation of plates for 3h. MTT (along with the medium) was removed and DMSO (150μL) was added to each well of the culture plates, followed by vortexing and subsequent measurement of absorbance (at 540 nm) using microplate reader. […]

The test system of the next data set is Bcl-2. Description: Bcl-2 inhibition assay. Format: cell-based, human. The following applies: for Bcl-2 Conc: A-549; for Bcl-2 Fold Reduction: A-549, vs control. The method, then:
4.2.5. Bcl-2inhibition assay
Mix all reagents thoroughly without foaming before use. Wash the microwells twice with approximately 300 μL Wash Buffer per well with thorough aspiration of microwell contents between washes. Take caution not to scratch the surface of the microwells. After the last wash, empty the wells and tap microwell strips on absorbent pad or paper towel to remove excess Wash Buffer. Use the microwell strips immediately after washing or place upside down on a wet absorbent paper for not […]
longer than 15 minutes. […] Add 100 μL of Sample Diluent in duplicate to all standard wells and to the blank wells. Prepare standard (1:2 dilution) in duplicate ranging from 32 ng/mL to 0.5 ng/mL. Add 100 μL of Sample Diluent, in duplicate, to the blank wells. Add 80 μL of Sample Diluent, in duplicate, to the sample wells. Add 20 μL of each Sample, in duplicate, to the designated wells. Add 50 μL of diluted biotin-conjugate to all wells, including the blank wells. Cover […]
Remove plate cover and empty the wells. […]
(§1) plate cover and incubate at room temperature, on a microplate shaker at 100 rpm if available, for 1 hour. Remove plate cover and empty the wells. Wash microwell strips 3 times as described in step 2.
(§2) Proceed to the next step. Pipette 100 μl of mixed TMB Substrate Solution to all wells, including the […]
available on a rotator set at 100 rpm. Avoid direct exposure to intense light. The point, at which the substrate reaction is stopped, is often determined by the ELISA reader. Many ELISA readers record absorbance only up to 2.0 O.D. Therefore, the color development within individual microwells must be watched by the person running the assay and the substrate reaction stopped before positive wells are no longer properly detectable. Stop the enzyme reaction by quickly pipetting 100 μL of Stop Solution into each well, including the blank wells. It is important that the Stop Solution is spread quickly and uniformly throughout the microwells to completely inactivate the enzyme. Results must be read immediately after the Stop Solution is added or within one hour if the microwell strips are stored at 2 - 8°C in the dark. Read absorbance of each microwell on a spectrophotometer using 450 nm as the primary wave length. […]

Another data set has as its system caspase-9. In words: Caspase-9 level assay. Format: cell-based, human. The conditions noted are these: for Caspase-9 Fold Change: vs control cells. The method, then:
The impact of compounds 4a and 4b on caspase-8 and caspase-9 was also assessed to clarify how compounds 4a and 4b induce apoptosis by activating the intrinsic or extrinsic route.

For a further data set, the system named is Cytochrome C. Description: Cytochrome C assay. Format: cell-based, human. The conditions noted are these: for Cytochrome C Conc: A-549; for Cytochrome C Fold Change: A-549, vs control. As to the method: The concentration of Cytochrome c in a cell is crucial for activating caspases and starting the intrinsic apoptosis process. […]
as §1, §2
available on a rotator set at 100 rpm. Avoid direct exposure to intense light. The point, at which the substrate reaction is stopped, is often determined by the ELISA reader. Many ELISA readers record absorbance only up to 2.0 O.D. Therefore, the color development within individual microwells must be watched by the person running the assay and the substrate reaction stopped before positive wells are no longer properly detectable. Stop the enzyme reaction by quickly pipetting 100 μL of Stop Solution into each well, including the blank wells. It is important that the Stop Solution is spread quickly and uniformly throughout the microwells to completely inactivate the enzyme. Results must be read immediately after the Stop Solution is added or within one hour if the microwell strips are stored at 2 - 8°C in the dark. Read absorbance of each microwell on a spectrophotometer using 450 nm as the primary wave length.
4.2.6. Cytochrome C assay […]
cytochrome C, and lysed with Cell Extraction Buffer. This lysate was diluted in Standard Diluent Buffer over the range of the assay and measured for cytochrome C content. (Cells are Plated in cells/well in a volume of 100µl complete growth medium + 100 µl of the tested compound + 50 µl of 1X biotin conjugated antibody+ 100 µl of 1X streptavidin-HRP+ 100 µL TMB substrate soln of per well in a 96-well plate for 24 hours before assay).
4.3. Statistical analysis
Computerized Prism 5 program was used to statistically analyzed data using one-way ANOVA test followed by Tukey’s as post ANOVA for multiple comparison at P ≤.05. Data were presented as […]

Each structure is given as a SMILES string. Several values for one entry are separate records, joined by “and”; a condition that tells them apart may be missing. Equal values may be shown once.

The record followed here is paper PMC9788418, “Design, Synthesis and Biological Evaluation of Syn and Anti-like Double Warhead Quinolinones Bearing Dihydroxy Naphthalene Moiety as Epidermal Growth Factor Receptor Inhibitors with Potential Apoptotic Antiproliferative Action” (Molecules, 2022).

What is called viability is a read-out of living cells in per cent, often relative to untreated cells. A high value points to less harm to the cells.

Procedure for caspase-3: record autophosphorylation level, EGFR kinase assay was carried out based on DELFIA/Time-
Resolved Fluorometry. The compounds were first dissolved in DMSO absolute, after dilution to
Each compound (10 µL) was incubated
with recombinant enzyme (10 µL, 5 ng for EGFR, 1:80 dilution in 100 mM HEPES) for 10 min at
25 °C, after the addition of 5X buffer (10 µL, containing 2 mM MnCl2, 100 µM Na3VO4, 20 mM HEPES and 1 mM DTT) and ATP-MgCl2 (20 µL, containing 0.1 mM ATP and 50 mM MgCl2) and
incubation for 1h. The negative and positive controls were included in each plate by the incubation
of enzyme either with or without ATP-MgCl2. The liquid was removed after incubation and the plates
were washed thrice using wash buffer. Europium-tagged antiphosphotyrosine antibody (75 µL, 400
ng) was added to each well followed by incubation of 1h and then washing of the plates using buffer.
The enhancement solution was added to each well and the signal was recorded at excitation and
The autophosphorylation percentage inhibition by compounds was calculated using the following equation:

Turning to `O=c1cc(-n2cc(COc3cccc4cccc(OCc5cn(-c6cc(=O)[nH]c7ccccc67)nn5)c34)nn2)c2ccccc2[nH]1` [Compound 4a, 4,4′-(((naphthalene-1,8-diylbis(oxy))bis(methylene))bis(1H-1,2,3-triazole-4,1-diyl))-bis-(quinolin-2(1H)-one)], in the data set on caspase-3, the “Caspase-3 Conc” value is recorded as 587.50 ± 4.50 pg/mL; the “Caspase-3 Fold Change” value was 9 and 8.95. Further, in the data set on caspase-8, the “Caspase-8 Conc” value was found to be 1.20 ng/mL and the “Caspase-8 Fold Change” value came out at 6. This compound had a viability at 96 h, 50 µM in data set [1] of 91%. In the data set with Bcl-2, the “Bcl-2 Conc” value is 1.05 ng/mL and the “Bcl-2 Fold Reduction” value amounted to 5. In addition, in the data set on caspase-9, the “Caspase-9 Conc” value turned out to be 17.80 ng/mL; the “Caspase-9 Fold Change” value was 19 and 18.75. Besides, in the data set on Cytochrome C, the “Cytochrome C Conc” value was 0.80 ng/mL and the “Cytochrome C Fold Change” value is reported as 16.

Consider `Cc1ccc2[nH]c(=O)cc(-n3cc(COc4cccc5cccc(OCc6cn(-c7cc(=O)[nH]c8ccc(C)cc78)nn6)c45)nn3)c2c1` [Compound 4b, 4,4′-(((naphthalene-1,8-diylbis(oxy))bis(methylene))bis(1H-1,2,3-triazole-4,1-diyl))-bis(6-methylquinolin-2(1H)-one)], for which, in the data set on caspase-3, the “Caspase-3 Conc” value is reported as 535.50 ± 4.50 pg/mL; the “Caspase-3 Fold Change” value was 8 and 8.15. Also, in the data set on caspase-8, the “Caspase-8 Conc” value is recorded as 0.80 ng/mL and the “Caspase-8 Fold Change” value is 4. Moreover, in data set [1], the viability at 96 h, 50 µM was found to be 89%. Moreover, in the data set with Bcl-2, the “Bcl-2 Conc” value worked out at 1.17 ng/mL and the “Bcl-2 Fold Reduction” value stood at 4. In the data set with caspase-9, the “Caspase-9 Conc” value amounted to 16.60 ng/mL; the “Caspase-9 Fold Change” value is 18 and 17.50. In the data set with Cytochrome C, the “Cytochrome C Conc” value is listed as 0.70 ng/mL and the “Cytochrome C Fold Change” value was 14.
